Results reported in patent US9598441B2, “Therapeutic compounds and methods” (Wayne State University, priority 2011, dated 2017).

Experiments:
[1] = test system: caspase-3, caspase-8, caspase-9, caspase-2; assay: ApoAlert Caspase profiling plate, fluorescence-based; type: cell-based
Method: For apoptosis ELISA assay, 4−5×10^2 cells were seeded in 96-well plates and treated essentially as indicated in the MTT assay above. Untreated as well as treated cells were lysed, and levels of mono and oligo-nucleosomal DNA fragments in the lysates were determined by measuring optical density of each sample at 405 nm and 495 nm wavelengths. […] For TUNEL labeling, the cells were treated with various agents, fixed, labeled and photographed essentially as detailed in immuno-localization protocols described before (Zhang, L., Levi, E., Majumder, P., Yu, Y., Aboukameel, A., Du, J., Xu, H., Mohammad, R. M., Hatfield, J. S., Wali, A., Adsay, V., Majumdar, A. P. N., and Rishi, A. K. (2007) Mol. Cancer. Ther. 6(5), 1661-1672). […] Cell lysates derived from vehicle DMSO (Control) or CFM-4-treated cells were added to the wells that had immobilized fluorogenic caspase-3, caspase-8, caspase-9, or caspase-2 substrates. The fluorescence released from the activated caspase-dependent cleavage of respective substrate was detected by a plate reader at the excitation and emission wavelengths of 380 nm and 460 nm, respectively.

[2] = test system: drug (ADR or TAM)-resistant MCF-7 HBC cells; assay: MTT cell viability assay, drug-resistant cells; type: cell-based, human
From the text: Routine maintenance and culture of MDA-MB-231, MDA-MB-468, SKBR-3 (all lack ER and have mutant p53), MCF-7, T47D (both have ER and wild-type p53) HBC cells (Runnebaum, I. B., Nagarajan, M., Bowman, M., Soto, D., and Sukumar, S. (1991). Proc. Natl. Acad. Sci. USA 88, 10657-10661), human prostate cancer PC3 and LnCAP cells, HCT-116 human colon cancer, human pancreatic cancer PANC-1 and BxPC-3, Burkett lymphoma Raji, diffuse large B-cell lymphoma WSU-DLCL2, follicular lymphoma WSU-FSCCL cells, cervical cancer HeLa, human mesothelial Met5a, human pleural malignant mesothelioma (MPM), murine MPM AB12 cells (Wang, Y., Rishi, A. K., Puliyappadamba, V. T., Sharma, S., Yang, H., Tarca, A., Dou, Q. P., Lonardo, F., Ruckdeschel, J. C., Pass, H. I., Wali, A. (2010) Can. Chemother. […]
Logarithmically growing cells were either untreated or treated with different agents for various time periods. […] The cell growth inhibition was assessed by using MTT assay. […]

activation of caspases (fluorescence-based quantitative assay) [1]: activation of caspases 3, 8, 9, and 2
SMILES: O=C1N(Cc2ccccc2Cl)c2ccccc2C12NN=C(c1ccccc1)S2 (centres unmarked) [CFM-4, 1-(2-chlorobenzyl)-5′-phenyl-3′H-spiro[indoline-3,2′-[1,3,4]thiadiazol]-2-one]
proliferation of drug-resistant MCF-7 cells (MTT) [2]: inhibited proliferation
